Here are results for 3 molecules from patent US7129273B2, “Dicreatine Malate” (Creative Compounds, LLC, priority 2003, dated 2006).

Series [1] in a line: metabolic properties and overall effectiveness as a supplement, compared with other creatine forms. It is filed as in vivo.
A short description of series [2]: absorption / bioavailability after oral supplementation. In kind it is in vivo.
Series [3] can be described thus: problems associated with creatine supplementation (cramping, bloating). The settings on record: compared with other creatine supplementation. In kind it is in vivo.
Series [4] concerns ATP production. As to the kind of experiment: production of ATP (high energy phosphate molecules). The settings on record: compared with additive effects of creatine and malic acid taken separately.
The test system of series [5] is burn victims. As to conditions: compared with molar equivalents of ornithine base and alpha-ketoglutaric acid taken separately; cited from earlier work.
The mark [6] stands for this setting: compared with any other form of creatine or malic acid supplement currently available.
The mark [7] stands for this setting: compared to creatine monohydrate.

On to `CN(CC(=O)O)C(=N)N.O=C(O)CC(O)C(=O)O` [monocreatine malate, reference compound], for which, in series [1] (comparison with dicreatine malate, inventors' experience), the “effect compared with dicreatine malate” value is listed as “inferior to the dicreatine malate”.
For dicreatine malate, the absorption entry in series [2] (setting [6]) was “more readily absorbed”. Besides, the “bioavailabilities of the creatine and malic acid moieties” value in series [2] (compared with individual bioavailabilities of creatine monohydrate and malic acid) was “increase the bioavailablities of both the creatine and malic acid moieties”. Besides, in series [1] (setting [7]), the decreasing adipose stores result is given as “enhanced efficacy for decreasing adipose stores”; the increasing cell volumization result is reported as “enhanced efficacy for increasing cell volumization”; the increasing muscle mass entry is given as “enhanced efficacy for increasing muscle mass”; the “increasing overall strength and endurance” value was “enhanced efficacy for increasing for increasing overall strength and endurance”. For the same molecule, the effectiveness result in series [1] (setting [6]) is on record as “much more effective”. For the same molecule, the “problems associated with creatine supplementation (cramping, bloating, bioavailability issues)” value in series [3] was “decreasing some of the problems associated with other creatine supplementation”. The “production of ATP” value in series [4] is “increases the production of ATP to a much greater extent than what would be expected by the mere additive effects”.
For `NCCC[C@H](N)C(=O)O` [ornithine alpha-ketoglutarate], in series [5], the anti-catabolic effect entry is reported as “strong anti-catabolic effect on burn victims far greater in effect than what is produced by merely combining the effects of the molar equivalents”.
